We go through 19 molecules from ChEMBL document CHEMBL1828542, “Synthesis and biological evaluation of substituted 4-arylthiazol-2-amino derivatives as potent growth inhibitors of replicating Mycobacterium tuberculosis H₃₇Rv” (Bioorg Med Chem Lett, 2011).

Converted amounts (≈) assume the structure as drawn.

Series [1] has as its system Mycobacterium tuberculosis. The series is described as follows: Antimicrobial activity against Mycobacterium tuberculosis H37Rv after 4 weeks by agar dilution assay. The class given is functional. The settings on record: 672 h.
Series [2] deals with Mycobacterium tuberculosis. The series is described as follows: Ratio of NTZ MIC to compound MIC for Mycobacterium tuberculosis H37Rv. The class given is functional.
Series [3] can be described thus: Cytotoxicity against african green monkey Vero cells after 72 hrs by resazurin assay. The settings on record: chlorocebus sabaeus. The series is classed as cell-based.
The subject of series [4] is Mycobacterium tuberculosis. The series is described as follows: Antimicrobial activity against Mycobacterium tuberculosis H37Rv after 11 days using [14]C labeled palmitic acid as substrate by radiometric Bactec 460TB method. The class given is functional. The settings on record: 264 h.
The nature of series [5]: Selectivity index, ratio of CC50 african green monkey Vero cells to MIC for Mycobacterium tuberculosis H37Rv. The class given is functional.
Series [6] deals with Mycobacterium tuberculosis. The series is described as follows: Antimicrobial activity against non-replicating Mycobacterium tuberculosis. The series is classed as functional.
Series [7] concerns Mycobacterium tuberculosis. The series is described as follows: Antimicrobial activity against replicating Mycobacterium tuberculosis. The class given is functional.

In turn, `O=[N+]([O-])c1cccc(-c2csc(Nc3ccccc3C(F)(F)F)n2)c1` yielded a minimum inhibitory concentration (MIC) in series [1] of more than 12.5 µg/mL.
Same read-out and setting: the same measure for `COc1ccc(OC)c(Nc2nc(-c3ccc(F)cc3)cs2)c1`: more than 12.5 µg/mL; for `COc1ccc(OC)c(Nc2nc(-c3cccc([N+](=O)[O-])c3)cs2)c1`: more than 12.5 µg/mL.
In series [1], `COc1cccc2c1CCC/C2=N/Nc1nc(-c2cccc([N+](=O)[O-])c2)cs1` returned a minimum inhibitory concentration (MIC) of 12.5 µg/mL (≈ 31.7 µM). In series [2], the “fold change (FC)” value was determined as 2.
As for `COc1ccc(-c2csc(Nc3ccccc3C(F)(F)F)n2)cc1`, the MIC in series [1] is more than 12.5 µg/mL.
Take `COc1ccc(-c2csc(N/N=C3/CCCc4c(OC)cccc43)n2)cc1OC`: the results for the MIC in series [1] and in series [4] were 6.25 µg/mL (≈ 15.3 µM) and 6.25 µM (≈ 2.56 µg/mL), respectively. The “fold change (FC)” value in series [2] was 3. The molecule further registered a CC50 at 72 h in series [3] of more than 244 µM. In addition, the Ratio result in series [5] was “>=39”.
For the molecule `Fc1ccc(-c2csc(Nc3ccccc3C(F)(F)F)n2)cc1`, the minimum inhibitory concentration (MIC) in series [1] is more than 12.5 µg/mL.
Take `COc1cccc2c1CCC/C2=N/Nc1nc(-c2ccc(F)cc2)cs1`: the minimum inhibitory concentration (MIC) was found to be 6.25 µg/mL (≈ 17 µM) in series [1] and 6.25 µM (≈ 2.3 µg/mL) in series [4]. The “fold change (FC)” value in series [2] was 3. In series [3], the CC50 at 72 h was more than 300 µM. Further, in series [5], the Ratio entry is “>=48”.
Take `COc1ccc(-c2csc(Nc3ccccc3C(F)(F)F)n2)cc1OC`: the MIC in series [1] was more than 12.5 µg/mL.
Same read-out and setting: the same measure for `Fc1ccc(-c2csc(N/N=C/c3cn(Cc4ccc(Cl)cc4Cl)c4ccccc34)n2)cc1`: more than 12.5 µg/mL.
The molecule `COc1cccc2c1CCC/C2=N/Nc1nc(-c2ccc(Cl)cc2Cl)cs1` returned an MIC in series [1] of 12.5 µg/mL (≈ 29.9 µM). Further, the “fold change (FC)” value in series [2] amounted to 2.
As for `Fc1ccc(Nc2nc(-c3ccc(F)cc3)cs2)cc1`, the MIC is 1.8 µg/mL (≈ 6.24 µM) in series [1] and 12.5 µM (≈ 3.6 µg/mL) in series [4]. Also, the “fold change (FC)” value in series [2] amounted to 9.
For the molecule `COc1ccc(-c2csc(N/N=C/c3cn(Cc4ccc(Cl)cc4Cl)c4ccccc34)n2)cc1OC`, the MIC in series [1] is more than 12.5 µg/mL.
On to `CC(=O)Oc1ccccc1C(=O)Nc1ncc([N+](=O)[O-])s1` [NITAZOXANIDE], for which the minimum inhibitory concentration (MIC) in series [6] and in series [7] was 52.1 µM (≈ 16 µg/mL) each time.
In series [1], `Clc1ccc(Cn2cc(/C=N/Nc3nc(-c4ccc(Cl)cc4Cl)cs3)c3ccccc32)c(Cl)c1` came in with an MIC of 12.5 µg/mL (≈ 22.9 µM).
Consider `NNC(=O)c1ccncc1` [ISONIAZID], for which, in series [1], the minimum inhibitory concentration (MIC) was less than 1 µg/mL.
Molecule `CN[C@@H]1[C@H](O[C@H]2[C@H](O[C@H]3[C@H](O)[C@@H](O)[C@H](N=C(N)N)[C@@H](O)[C@@H]3N=C(N)N)O[C@@H](C)[C@]2(O)C=O)O[C@@H](CO)[C@H](O)[C@H]1O` [STREPTOMYCIN] came in with an MIC in series [4] of 6 µM (≈ 3.49 µg/mL).
Take `O=C(Nc1ncc([N+](=O)[O-])s1)c1ccccc1O` [TIZOXANIDE]: the minimum inhibitory concentration (MIC) in series [6] and in series [7] was 60.4 µM (≈ 16 µg/mL) throughout.
In series [1], `COc1ccc(-c2csc(Nc3cc(OC)ccc3OC)n2)cc1` registered an MIC of more than 12.5 µg/mL.
